Measured values taken from patent publication US20230226005A1, “Methods of Treating, Ameliorating, Shortening Duration, and/or Reversing Symptoms and/or Complications of a Coronavirus Infection” (Yale University, priority 2020, published 2023).

Test system: COVID-19 infection
Assay: Phase IIa study: smell/taste-family symptom score
Format: in vivo
Conditions: for smell/taste-family symptoms, Fitzmaurice mixed effects model, Effect: Camostat vs Placebo

CN(C)C(=O)COC(=O)Cc1ccc(OC(=O)c2ccc(NC(=N)N)cc2)cc1 [camostat, 4-[[4-[(Aminoiminomethyl)amino]benzoyl]oxy]benzeneacetic acid 2-(dimethylamino)-2-oxoethyl ester]
smell/taste-family symptoms, Fitzmaurice mixed effects model, Camostat (Day 0): 1.4 (0.2) | smell/taste-family symptoms, Fitzmaurice mixed effects model, Camostat (Day 1): 1.4 (0.2) | smell/taste-family symptoms, Fitzmaurice mixed effects model, Effect (Day 1): 0.5 (0.3) | smell/taste-family symptoms, Fitzmaurice mixed effects model, Camostat (Day 2): 1.4 (0.2) | smell/taste-family symptoms, Fitzmaurice mixed effects model, Effect (Day 2): 0.7 (0.3) | smell/taste-family symptoms, Fitzmaurice mixed effects model, Camostat (Day 3): 1.3 (0.2) | smell/taste-family symptoms, Fitzmaurice mixed effects model, Effect (Day 3): 1 (0.3) | smell/taste-family symptoms, Fitzmaurice mixed effects model, Camostat (Day 4): 1.2 (0.2) | smell/taste-family symptoms, Fitzmaurice mixed effects model, Effect (Day 4): 1 (0.3) | smell/taste-family symptoms, Fitzmaurice mixed effects model, Camostat (Day 5): 1.1 (0.2) | smell/taste-family symptoms, Fitzmaurice mixed effects model, Effect (Day 5): 1.2 (0.3) | smell/taste-family symptoms, Fitzmaurice mixed effects model, Camostat (Day 6): 1 (0.2) | smell/taste-family symptoms, Fitzmaurice mixed effects model, Effect (Day 6): 0.7 (0.3) | smell/taste-family symptoms, Fitzmaurice mixed effects model, Camostat (Day 7): 0.8 (0.2) | smell/taste-family symptoms, Fitzmaurice mixed effects model, Effect (Day 7): 0.7 (0.3) | smell/taste-family symptoms, Fitzmaurice mixed effects model, Camostat (Day 8): 0.8 (0.2) | smell/taste-family symptoms, Fitzmaurice mixed effects model, Effect (Day 8): 0.8 (0.3) | smell/taste-family symptoms, Fitzmaurice mixed effects model, Camostat (Day 9): 0.9 (0.2) | smell/taste-family symptoms, Fitzmaurice mixed effects model, Effect (Day 9): 0.6 (0.3) | smell/taste-family symptoms, Fitzmaurice mixed effects model, Camostat (Day 10): 0.9 (0.2) | smell/taste-family symptoms, Fitzmaurice mixed effects model, Effect (Day 10): 0.5 (0.3) | smell/taste-family symptoms, Fitzmaurice mixed effects model, Camostat (Day 11): 0.9 (0.2) | smell/taste-family symptoms, Fitzmaurice mixed effects model, Effect (Day 11): 0.3 (0.3) | smell/taste-family symptoms, Fitzmaurice mixed effects model, Camostat (Day 12): 0.9 (0.2) | smell/taste-family symptoms, Fitzmaurice mixed effects model, Effect (Day 12): 0.2 (0.3) | smell/taste-family symptoms, Fitzmaurice mixed effects model, Camostat (Day 13): 0.7 (0.3) | smell/taste-family symptoms, Fitzmaurice mixed effects model, Effect (Day 13): 0.4 (0.3) | smell/taste-family symptoms, Fitzmaurice mixed effects model, Camostat (Day 14): 0.8 (0.3) | smell/taste-family symptoms, Fitzmaurice mixed effects model, Effect (Day 14): 0.4 (0.3)
